The target of this experiment is T1, GlyT1 (Homo sapiens, UniProt P48067).
T1 construct: expressed in transfected cells
T1 sequence (P48067 1-706): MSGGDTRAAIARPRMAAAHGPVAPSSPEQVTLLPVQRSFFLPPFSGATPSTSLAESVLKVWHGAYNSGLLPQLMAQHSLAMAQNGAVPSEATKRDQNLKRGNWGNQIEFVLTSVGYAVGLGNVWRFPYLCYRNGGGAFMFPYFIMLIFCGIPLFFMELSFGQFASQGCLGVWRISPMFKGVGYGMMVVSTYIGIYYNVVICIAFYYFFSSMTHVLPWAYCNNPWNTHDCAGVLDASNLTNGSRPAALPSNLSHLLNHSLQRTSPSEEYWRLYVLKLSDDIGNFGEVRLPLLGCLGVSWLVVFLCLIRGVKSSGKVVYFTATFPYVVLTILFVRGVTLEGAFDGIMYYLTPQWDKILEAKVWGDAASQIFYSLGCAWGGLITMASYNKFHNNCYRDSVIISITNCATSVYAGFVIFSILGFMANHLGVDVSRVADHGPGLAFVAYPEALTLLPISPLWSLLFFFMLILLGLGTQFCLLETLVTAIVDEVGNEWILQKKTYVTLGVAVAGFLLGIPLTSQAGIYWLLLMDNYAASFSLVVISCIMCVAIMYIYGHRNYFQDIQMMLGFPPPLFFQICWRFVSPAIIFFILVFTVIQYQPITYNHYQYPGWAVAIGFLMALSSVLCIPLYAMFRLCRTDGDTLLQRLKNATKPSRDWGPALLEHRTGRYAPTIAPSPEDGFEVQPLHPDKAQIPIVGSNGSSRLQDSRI
Nature of the experiment: Glycine Transporter 1 (GlyT1) uptake assay, scintillation proximity assay of [14C]-glycine uptake. Format: cell-based. Conditions: [14C]-glycine uptake; read-out: GlyT1 (pIC50) (converted). A digest of the protocol: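 IC50 values were derived by four-parameter logistic fitting of counts. The 2× compound solutions were made by 1:100 dilution into HBSS of DMSO serial dilutions.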

For the molecule `COc1cc(C#N)ccc1C1CN(C(=O)c2c(O[C@@H](C)C(F)(F)F)ccc(C#N)c2OC)C1` [Example 128, 3-{[3-(4-Cyano-2-methoxyphenyl)azetidin-1-yl]carbonyl}-2-methoxy-4-{[(2S)-1,1,1-trifluoropropan-2-yl]oxy}benzonitrile], the IC50 is under 100 nM.
The result for `COc1c(C#N)ccc(C2(F)CCOCC2)c1C(=O)N1CC(F)(c2ccc(C(F)(F)F)cc2)C1` [Example 17, 3-({3-Fluoro-3-[4-(trifluoromethyl)phenyl]azetidin-1-yl}carbonyl)-4-(4-fluorooxan-4-yl)-2-methoxybenzonitrile] reads 100 to 1000 nM; that for `CC(Oc1ccc(C#N)c(Cl)c1C(=O)N1CC(c2ccc(F)cn2)C1)C(F)(F)F` (centres unmarked) [Example 66, 2-Chloro-3-{[3-(5-fluoropyridin-2-yl)azetidin-1-yl]carbonyl}-4-[(1,1,1-trifluoropropan-2-yl)oxy]benzonitrile], 100 to 1000 nM.
The same measure for `COc1c(S(C)(=O)=O)ccc(O[C@@H](C)C(F)(F)F)c1C(=O)N1CC(Oc2ccccc2Cl)C1` [Example 46, 3-(2-Chlorophenoxy)-1-(3-methanesulfonyl-2-methoxy-6-{[(2S)-1,1,1-trifluoropropan-2-yl]oxy}benzoyl)azetidine]: 100 to 1000 nM; for `COc1c(S(C)(=O)=O)ccc(OCC(F)(F)F)c1C(=O)N1CC(Oc2cc(F)c(F)cc2F)C1` [Example 226, 1-[3-Methanesulfonyl-2-methoxy-6-(2,2,2-trifluoroethoxy)benzoyl]-3-(2,4,5-trifluorophenoxy)azetidine]: 100 to 1000 nM; for `COc1c(S(C)(=O)=O)ccc(O[C@@H](C)C(F)(F)F)c1C(=O)N1CC(c2cc(F)c(F)c(F)c2)C1` [Example 150, 1-(3-Methanesulfonyl-2-methoxy-6-{[(2S)-1,1,1-trifluoropropan-2-yl]oxy}benzoyl)-3-(3,4,5-trifluorophenyl)azetidine]: under 100 nM.
The same measure for `COc1c(S(C)(=O)=O)ccc(O[C@@H](C)C(F)(F)F)c1C(=O)N1CC(c2ccc(C3CCOCC3)cc2)C1` [Example 168, 1-(3-Methanesulfonyl-2-methoxy-6-{[(2S)-1,1,1-trifluoropropan-2-yl]oxy}benzoyl)-3-[4-(oxan-4-yl)phenyl]azetidine]: under 100 nM; for `CC(Oc1ccc(C#N)c(Cl)c1C(=O)N1CC(Oc2ccc(F)c(F)c2)C1)C(F)(F)F` (centres unmarked) [Example 68, 2-Chloro-3-{[3-(3,4-difluorophenoxy)azetidin-1-yl]carbonyl}-4-[(1,1,1-trifluoropropan-2-yl)oxy]benzonitrile]: 100 to 1000 nM; for `COc1c(S(C)(=O)=O)ccc(O[C@@H](C)C(F)(F)F)c1C(=O)N1CC(c2cc(C)ccc2F)C1` [Example 42, 3-(2-Fluoro-5-methylphenyl)-1-(3-methanesulfonyl-2-methoxy-6-{[(2S)-1,1,1-trifluoropropan-2-yl]oxy}benzoyl)azetidine]: under 100 nM.
`COc1cc(C2CN(C(=O)c3c(O[C@@H](C)C(F)(F)F)ccc(C#N)c3OC)C2)ccc1C#N` [Example 174, 3-{[3-(4-Cyano-3-methoxyphenyl)azetidin-1-yl]carbonyl}-2-methoxy-4-{[(2S)-1,1,1-trifluoropropan-2-yl]oxy}benzonitrile]: the IC50 is under 100 nM.
Take `COc1c(C#N)ccc(O[C@@H](C)C(F)(F)F)c1C(=O)N1CC(c2ncc(C(F)(F)F)cc2Cl)C1` [Example 114, 3-({3-[3-Chloro-5-(trifluoromethyl)pyridin-2-yl]azetidin-1-yl}carbonyl)-2-methoxy-4-{[(2S)-1,1,1-trifluoropropan-2-yl]oxy}benzonitrile]: the IC50 was 100 to 1000 nM.
The same measure for `COc1c(S(C)(=O)=O)ccc(O[C@H](C)C(F)(F)F)c1C(=O)N1CC(c2ccc(C(F)(F)F)c(F)c2)C1` [Example 140, 3-[3-Fluoro-4-(trifluoromethyl)phenyl]-1-(3-methanesulfonyl-2-methoxy-6-{[(2R)-1,1,1-trifluoropropan-2-yl]oxy}benzoyl)azetidine]: 100 to 1000 nM.
As for `COc1c(C#N)ccc(O[C@@H](C)C(F)(F)F)c1C(=O)N1CC(C(F)(F)c2ccc(C(F)(F)F)cc2)C1` [Example 4, (S)-3-(3-(difluoro(4-(trifluoromethyl)phenyl)methyl)azetidine-1-carbonyl)-2-methoxy-4-((1,1,1-trifluoropropan-2-yl)oxy)benzonitrile], the IC50 is under 100 nM.
The result for `COc1c(C#N)ccc(C2(F)CCOCC2)c1C(=O)N1CC(c2ccc(Cl)cc2)C1` [Example 20, 3-{[3-(4-Chlorophenyl)azetidin-1-yl]carbonyl}-4-(4-fluorooxan-4-yl)-2-methoxybenzonitrile] reads under 100 nM.
On to `COc1c(C#N)ccc(OC(C)C)c1C(=O)N1CC(c2ccc(C3CCOCC3)cn2)C1` [Example 166, 2-Methoxy-3-{3-[5-(oxan-4-yl)pyridin-2-yl]azetidine-1-carbonyl}-4-(propan-2-yloxy)benzonitrile], for which the IC50 is 100 to 1000 nM.
The result for `CC(Oc1ccc(C#N)c(Cl)c1C(=O)N1CC(Oc2cccnc2)C1)C(F)(F)F` (centres unmarked) [Example 103, 2-Chloro-3-{[3-(pyridin-3-yloxy)azetidin-1-yl]carbonyl}-4-[(1,1,1-trifluoropropan-2-yl)oxy]benzonitrile] reads under 100 nM; that for `CC(Oc1ccc(C#N)c(Cl)c1C(=O)N1CC(c2ccc(F)c(F)c2)C1)C(F)(F)F` (centres unmarked) [Example 81, 2-Chloro-3-{[3-(3,4-difluorophenyl)azetidin-1-yl]carbonyl}-4-[(1,1,1-trifluoropropan-2-yl)oxy]benzonitrile], 1000 to 10000 nM; that for `COc1c(C#N)ccc(O[C@@H](C)C(F)(F)F)c1C(=O)N1CC(Oc2ccc(F)cc2)C1` [Example 33, 3-{[3-(4-Fluorophenoxy)azetidin-1-yl]carbonyl}-2-methoxy-4-{[(2S)-1,1,1-trifluoropropan-2-yl]oxy}benzonitrile], 1000 to 10000 nM.
Turning to `COc1cc(C(F)(F)F)cnc1C1CN(C(=O)c2c(O[C@@H](C)C(F)(F)F)ccc(C#N)c2OC)C1` [Example 9, (S)-2-methoxy-3-(3-(3-methoxy-5-(trifluoromethyl)pyridin-2-yl)azetidine-1-carbonyl)-4-((1,1,1-trifluoropropan-2-yl)oxy)benzonitrile], the IC50 was under 100 nM.
The same measure for `COc1c(C#N)ccc(C2(F)CCOCC2)c1C(=O)N1CC(Oc2ccc(Cl)cc2)C1` [Example 28, 3-{[3-(4-Chlorophenoxy)azetidin-1-yl]carbonyl}-4-(4-fluorooxan-4-yl)-2-methoxybenzonitrile]: 100 to 1000 nM; for `C[C@H](Oc1ccc(C#N)c(Cl)c1C(=O)N1CC(c2ccc(C#N)cc2Cl)C1)C(F)(F)F` [Example 131, 2-Chloro-3-{[3-(2-chloro-4-cyanophenyl)azetidin-1-yl]carbonyl}-4-{[(2S)-1,1,1-trifluoropropan-2-yl]oxy}benzonitrile]: under 100 nM.
The result for `COc1c(S(C)(=O)=O)ccc(OCC(F)(F)F)c1C(=O)N1CC(c2ccc(C(F)(F)F)cc2)C1` [Example 235, 1-[3-Methanesulfonyl-2-methoxy-6-(2,2,2-trifluoroethoxy)benzoyl]-3-[4-(trifluoromethyl)phenyl]azetidine] reads under 100 nM.
The result for `COc1c(C#N)ccc(C2(F)CCOCC2)c1C(=O)N1CC(c2ccc(C(F)(F)F)cc2)C1` [Example 208, 4-(4-Fluorooxan-4-yl)-2-methoxy-3-({3-[4-(trifluoromethyl)phenyl]azetidin-1-yl}carbonyl)benzonitrile] reads under 100 nM.

For the origin of these results see US10040759B2, “Substituted azetidinyl compounds as GlyT1 inhibitors” (DART NEUROSCIENCE (CAYMAN) LTD., priority 2014, dated 2018).
